Measured values as given in paper PMC6537702, “Design, synthesis, molecular modelling, and biological evaluation of novel substituted pyrimidine derivatives as potential anticancer agents for hepatocellular carcinoma” (Journal of Enzyme Inhibition and Medicinal Chemistry, 2019).
Values after ≈ are worked out from the molar mass of the structure shown. Where two headings read alike, the source gives them in different places.

Tests used:
[1] = system: HepG2 cell line; assay: Resazurin cell growth inhibition assay, HepG2; assay type: cell-based, human; settings: for IC50: Homo sapiens
Description: (§1) All compounds 2a-e, 3a-d, and PPAD’s 4a-t were subjected to a screening system for evaluation of their anticancer activity against cell line of human cancer, namely liver (HepG2 and Huh-7) cancer and normal fibroblast cells obtained from the German Cancer Research Center (DKFZ), following the Resazurin Cell Growth Inhibition Assay[45] in comparison to the standard treatment using DOX (see Supplementary).
(§2) Cell culture and treatment
(§3) All reagents were handled in a sterile fume hood. DMEM medium, and fetal bovine serum (FBS) were purchased from Gibco;phosphate-buffered saline pH 7.4 (PBS) and trypsin-EDTA were obtained from Sigmae Aldrich. Alamar Blue or Resazurin (Promega,Mannheim, Germany) reduction assay was used to assess the cytotoxicity of the studied samples. The growth medium (DMEMmedium with 10% FBS, 10 0 U/mL penicillin, and 10 0 mg/L streptomycin), and alamar blue were stored at 48 C, while trypsineEDTA and FBS were stored frozen at 208C and thawed before use; PBS was stored at room temperature. The Hep-G2, Huh-7 and normal fibroblast cells were obtained from the German Cancer Research Center (DKFZ).Cells were cultured in 50 cm2 culture flask s (Corning) using DMEM medium supplemented with 10% FBS, penicillin (10 0 IU/mL), and streptomycin ([…]). The culture was maintained at 37 C atmosphere of 5% CO2 and 95% relative humidity. The cells were transferred to a new fl ask every 2 days and treated with trypsineEDTA to detach them from the flask . Cells were counted under a microscope using a hemacytometer (Hausser Scientific).Cell solutions were diluted with growth medium to a concentration of 1 *10^5 cells/mL and transferred to a 96-well plate, and treated with gradient concentrations of test compounds.
(§4) Resazurin cell growth inhibition assay
(§5) Alamar Blue or Resazurin (Promega, Mannheim, Germany) reduction assay was used to assess the cytotoxicity of the studied samples. The assay tests cellular viability and mitochondrial function. Briefly y, adherent cells were grown in tissue culture flask s, and then harvested by treating the fl asks with 0.025% trypsin and0.25 mM EDTA for 5 min. Once detached, cells were washed, counted and an aliquot (5 * 103cells) was placed in each well of a96-well cell culture plate in a total volume of […]. Cells were allowed to attach overnight and then treated with samples. The final concentration of samples ranged from 0 to 10 0 mM. After 4 8 h,[…] Resazurin 0.01% w/v solution was added to each well and the plates were incubated at 37C for 1 -2 h. Fluorescence was measured on an automated 96-well Infinite M2000 ProTM plate reader (Tecan, Crailsheim, Germany) using an excit ation wave-length of 54 4 nm and an emission wavelength of 590 nm. Doxorubicin was used as positive control. Each assay was done at least three times, with two replicates each. The viability was compared based on a comparison with untreated cells. IC50(on cancer cells) were the concentration of sample required to inhibit 50% of the cell proliferation and were calculated from a calibration curve by a linear regression using Microsoft Excel

[2] = Resazurin cell growth inhibition assay, normal fibroblast cells; assay type: cell-based; settings: M ± SEM of three independent experiments, read-out: Cytotoxic activity IC50, Fibroblast
Description: as §1, §2, §3, §4, §5

[3] = system: Huh-7 cell line; assay: Resazurin cell growth inhibition assay, Huh-7; assay type: cell-based, human; settings: for IC50: Homo sapiens
Description: as §1, §2, §3, §4, §5

[4] = HepG2, 48 h, resazurin assay, 48 h, M ± SEM of three independent experiments, read-out: Cytotoxic activity IC50, HepG2 cell line
[5] = Huh-7, 48 h, resazurin assay, 48 h, M ± SEM of three independent experiments, read-out: Cytotoxic activity IC50, Huh-7 cell line
[6] = HepG2, converted from μg/mL, read-out: IC50 against HepG2 cell line, equivalent in μM
[7] = resazurin assay, 48 h, M ± SEM of three independent experiments

melting point [°C]	IC50 [1, 6] [µM]	IC50 ([3]; Huh-7, converted from μg/mL, read-out: IC50 against Huh-7 cell line, equivalent in μM) [µM]	Structure (SMILES)	IC50 [1, 4] [µg/mL]	IC50 at 48 h [2] [µg/mL]	IC50 [3, 5] [µg/mL]	Cytotoxic activity IC50, HepG2 cell line [1, 7] [µg/mL]	Cytotoxic activity IC50, Huh-7 cell line [3, 7] [µg/mL]
150 to 151	–	–	N#Cc1c(-c2ccccc2)nc(N2N=C(c3c4ccccc4cc4ccccc34)CC2c2ccc(F)cc2)[nH]c1=O (stereo not drawn) [Compound 4a, 2-[3-Anthracene-9-yl-5–(4-fluoro-phenyl)-4,5-dihydro-pyrazol-1-yl]-6-oxo-4-phenyl-1,6-dihydro-pyrimidine-5-carbonitrile]	11.3 ± 2.11	32.3 ± 5.22 (≈ 60.3 µM)	16.8 ± 3.45	–	–
120 to 122	–	–	CN(C)c1ccc(C2CC(c3c4ccccc4cc4ccccc34)=NN2c2nc(-c3ccccc3)c(C#N)c(=O)[nH]2)cc1 (stereo not drawn) [Compound 4b, 2-[3-Anthracene-9-yl-5–(4-dimethylamino-phenyl)-4,5-dihydro-pyrazol-1-yl]-6-oxo-4-phenyl-1,6-dihydro-pyrimidine-5-carbonitrile]	15.3 ± 4.21	33 ± 6.51 (≈ 58.9 µM)	10.9 ± 2.14	–	–
110 to 112	–	–	COc1cc(C2CC(c3c4ccccc4cc4ccccc34)=NN2c2nc(-c3ccccc3)c(C#N)c(=O)[nH]2)cc(OC)c1OC (stereo not drawn) [Compound 4c, 2-[3-Anthracene-9-yl-5–(3,4,5-trimethoxy-phenyl)-4,5-dihydro-pyrazol-1-yl]-6-oxo-4-phenyl-1,6-dihydro-pyrimidine-5-carbonitrile]	15.3 ± 4.22	29.3 ± 3.51 (≈ 48.2 µM)	11.3 ± 1.09	–	–
135 to 137	–	–	N#Cc1c(-c2ccccc2)nc(N2N=C(c3c4ccccc4cc4ccccc34)CC2c2c[nH]c3ccccc23)[nH]c1=O (stereo not drawn) [Compound 4d, 2-[3-Anthracene-9-yl-5-(1H-indol-3-yl)-4,5-dihydro-pyrazol-1-yl]-6-oxo-4-phenyl-1,6-dihydro-pyrimidine-5-carbonitrile]	17.2 ± 4.04	21.5 ± 4.07 (≈ 38.6 µM)	8.42 ± 1.04	–	–
–	7.2	–	CN(C)c1ccc(C2CC(c3c4ccccc4cc4ccccc34)=NN2c2nc(-c3ccc(F)cc3)c(C#N)c(=O)[nH]2)cc1 (stereo not drawn) [Compound 4f, 2-[3-Anthracene-9-yl-5–(4-dimethylamino-phenyl)-4,5-dihydro-pyrazol-1-yl]-4–(4-fluoro-phenyl)-6-oxo-1,6-dihydro-pyrimidine-5-carbonitrile]	4.2	33.1 ± 6.52 (≈ 57.3 µM)	8.45 ± 0.75	4.22 ± 0.94	–
–	–	7.6	COc1cc(C2CC(c3c4ccccc4cc4ccccc34)=NN2c2nc(-c3ccc(F)cc3)c(C#N)c(=O)[nH]2)cc(OC)c1OC (stereo not drawn) [Compound 4g, 2-[3-Anthracene-9-yl-5–(3,4,5-trimethoxy-phenyl)-4,5-dihydro-pyrazol-1-yl]-4–(4-fluoro-phenyl)-6-oxo-1,6-dihydro-pyrimidine-5-carbonitrile]	7.22 ± 1.85	25.3 ± 4.87 (≈ 40.5 µM)	4.78 ± 0.24	–	–
143 to 145	–	–	N#Cc1c(-c2ccc(F)cc2)nc(N2N=C(c3c4ccccc4cc4ccccc34)CC2c2c[nH]c3ccccc23)[nH]c1=O (stereo not drawn) [Compound 4h, 2-[3-Anthracene-9-yl-5-(1H-indol-3-yl)-4,5-dihydro-pyrazol-1-yl]-4–(4-fluoro-phenyl)-6-oxo-1,6-dihydro-pyrimidine-5-carbonitrile]	7.45 ± 1.11	23.5 ± 4.21 (≈ 40.9 µM)	9.77 ± 1.48	–	–
240 to 242	–	–	CN(C)c1ccc(C2CC(c3c4ccccc4cc4ccccc34)=NN2c2nc(-c3c[nH]c4ccccc34)c(C#N)c(=O)[nH]2)cc1 (stereo not drawn) [Compound 4j, 2-[3-Anthracene-9-yl-5–(4-dimethylamino-phenyl)-4,5-dihydro-pyrazol-1-yl]-4-(1H-indol-3-yl)-6-oxo-1,6-dihydro-pyrimidine-5-carbonitrile]	12.2 ± 2.53	34.1 ± 5.17 (≈ 56.9 µM)	13.2 ± 3.05	–	–
228 to 230	–	–	COc1cc(C2CC(c3c4ccccc4cc4ccccc34)=NN2c2nc(-c3c[nH]c4ccccc34)c(C#N)c(=O)[nH]2)cc(OC)c1OC (stereo not drawn) [Compound 4k, 2-[3-Anthracene-9-yl-5–(3,4,5-trimethoxy-phenyl)-4,5-dihydro-pyrazol-1-yl]-4-(1H-indol-3-yl)-6-oxo-1,6-dihydro-pyrimidine-5-carbonitrile]	14.1 ± 3.01	27 ± 4.12 (≈ 41.8 µM)	13.5 ± 2.32	–	–
220 to 222	–	–	N#Cc1c(-c2c[nH]c3ccccc23)nc(N2N=C(c3c4ccccc4cc4ccccc34)CC2c2c[nH]c3ccccc23)[nH]c1=O (stereo not drawn) [Compound 4l, 2-[3-Anthracene-9-yl-5-(1H-indol-3-yl)-4,5-dihydro-pyrazol-1-yl]-4-(1H-indol-3-yl)-6-oxo–1,6-dihydro-pyrimidine-5-carbonitrile]	14.6 ± 2.12	20.2 ± 3.18 (≈ 34 µM)	12.4 ± 1.75	–	–

Second part, the compound before the results:

Structure (SMILES)	melting point [°C]	IC50 [1, 6] [µM]	IC50 ([3]; Huh-7, converted from μg/mL, read-out: IC50 against Huh-7 cell line, equivalent in μM) [µM]	IC50 [1, 4] [µg/mL]	IC50 at 48 h [2] [µg/mL]	IC50 [3, 5] [µg/mL]	Cytotoxic activity IC50, HepG2 cell line [1, 7] [µg/mL]	Cytotoxic activity IC50, Huh-7 cell line [3, 7] [µg/mL]
N#Cc1c(-c2ccccc2)nc(NN)[nH]c1=O [Compound 2a]	–	–	–	20.8 ± 1.6	40 ± 1.24 (≈ 176 µM)	21.7 ± 1.18	–	–
N#Cc1c(-c2ccc(F)cc2)nc(NN)[nH]c1=O [Compound 2b]	–	–	–	22.2 ± 2.2	40.6 ± 2.45 (≈ 165 µM)	21.6 ± 2.19	–	–
N#Cc1c(-c2c[nH]c3ccccc23)nc(NN)[nH]c1=O [Compound 2c]	–	–	–	20.2 ± 1.88	40.2 ± 2.13 (≈ 151 µM)	21.3 ± 2.37	–	–
COc1cc(-c2nc(NN)[nH]c(=O)c2C#N)cc(OC)c1OC [Compound 2d]	–	–	–	20.6 ± 2.14	40.1 ± 1.37 (≈ 126 µM)	21.8 ± 3.18	–	–
CN(C)c1ccc(-c2nc(NN)[nH]c(=O)c2C#N)cc1 [Compound 2e, 4-[4-(Dimethylamino)phenyl]-2-hydrazino-6-oxo-1,6-dihydropyrimidine-5-carbonitrile]	214 to 216	–	–	20.1 ± 3	40.4 ± 1.89 (≈ 150 µM)	21 ± 4.12	–	–
O=C(/C=C/c1ccc(F)cc1)c1c2ccccc2cc2ccccc12 [Compound 3a]	–	–	–	22.2 ± 2.45	40.6 ± 2.48 (≈ 124 µM)	21.8 ± 1.24	–	–
CN(C)c1ccc(/C=C/C(=O)c2c3ccccc3cc3ccccc23)cc1 [Compound 3b]	–	–	–	21.4 ± 2.76	40.7 ± 2.34 (≈ 116 µM)	21 ± 1.12	–	–
COc1cc(/C=C/C(=O)c2c3ccccc3cc3ccccc23)cc(OC)c1OC [Compound 3c]	–	–	–	21.5 ± 2.54	40.8 ± 4.51 (≈ 102 µM)	21.5 ± 4.13	–	–
O=C(/C=C/c1c[nH]c2ccccc12)c1c2ccccc2cc2ccccc12 [Compound 3d, (2E)-1–(9-anthryl)-3-(1H-indol-3-yl)prop-2-en-1-one]	170 to 172	–	–	22.5 ± 2.8	40.8 ± 4.72 (≈ 117 µM)	22.6 ± 3.3	–	–
COc1cc(-c2nc(N3N=C(c4c5ccccc5cc5ccccc45)CC3c3c[nH]c4ccccc34)[nH]c(=O)c2C#N)cc(OC)c1OC (stereo not drawn) [Compound 4p, 2-[3-Anthracene-9-yl-5-(1H-indol-3-yl)-4,5-dihydro-pyrazol-1-yl]-6-oxo-4–(3,4,5-trimethoxy-phenyl)-1,6-dihydro-pyrimidine-5-carbonitrile]	–	–	–	11.2 ± 1.2	18.2 ± 4.02 (≈ 28.2 µM)	8.14 ± 1.65	–	–
COc1cccc2c1C(=O)c1c(O)c3c(c(O)c1C2=O)C[C@@](O)(C(=O)CO)C[C@@H]3O[C@H]1C[C@H](N)[C@H](O)[C@H](C)O1 [Doxorubicin, reference compound]	–	10.1	–	5.43 ± 0.24	24.1 ± 3.53 (≈ 44.4 µM)	5.43	–	6.40 ± 0.43
